Values of other authors, collected in patent publication EP3357492B1, “MULTILAYER TABLET FOR ADMINISTRATION OF MAGNESIUM” (S.I.I.T. S.r.l.-Servizio Internazionale Imballaggi …, priority 2017, dated 2018).

What was measured:
[1] = in water

Row | pH (1% in water solution) | Solubility (g/100 g water) [1] | Compound
1 | 8 | – | O.O.O.O.O.O=P([O-])([O-])[O-].O=P([O-])([O-])[O-].[Mg+2].[Mg+2].[Mg+2] [Phosphate 5 hydrate]
2 | 6 | – | O=C1CC[C@@H](C(=O)[O-])N1.O=C1CC[C@@H](C(=O)[O-])N1.[Mg+2] [Pidolate]
3 | 10 | – | CCC(=O)O [Propionate]
4 | 7 | – | Fumarate
5 | 7 | – | Gluconate
6 | 7 | 4 g/100 g water | Glycerophosphate
7 | 7 | – | Lactate
8 | 6 | 40-50 g/100 g water | Phosphate

The remaining lines, values behind:

Row | Compound | pH (1% in water solution) | Solubility (g/100 g water) [1]
9 | O.O.O=C1O[C@H]([C@@H](O)CO)C([O-])=C1O.O=C1O[C@H]([C@@H](O)CO)C([O-])=C1O.[Mg+2] [Ascorbate 2 hydrate] | 7 | –
10 | N[C@@H](CC(=O)O)C(=O)[O-].N[C@@H](CC(=O)O)C(=O)[O-].O.O.O.O.[Mg+2] [Aspartate 4 hydrate] | 7 | –
11 | O=C([O-])[O-].[Na+].[Na+] [Carbonate] | 10 | –
12 | O.O.O.O.O.O.[Cl-].[Cl-].[Mg+2] [Chloride 6 hydrate] | 5 | –
13 | O=C(O)CC(O)(CC(=O)O)C(=O)O [Citrate] | 4 | –
14 | O=C([O-])CC(O)(CC(=O)[O-])C(=O)[O-].O=C([O-])CC(O)(CC(=O)[O-])C(=O)[O-].[Mg+2].[Mg+2].[Mg+2] [Dicitrate] | 9 | –
15 | [Mg+2].[OH-].[OH-] [Hydroxide, Magnesium hydroxide] | 10.5 | –
16 | [O]=[Mg] [Oxide, Magnesium oxide] | 10.5 | <1 g/100 g water
17 | O=C([O-])CC(O)(CC(=O)[O-])C(=O)[O-].[K+].[K+].[K+] [Potassium citrate] | 7.5 | –
